Laboratory results: US10336762B2 (priority 2017, dated 2019)

Experiments:
IRAK4 enzyme = IRAK4 enzyme (Homo sapiens (Human), UniProt Q9NWZ3); experiment: biochemical; type: biochemical; conditions: IRAK4 enzyme, TR-FRET, 500 μM ATP
TNFα = experiment: cells; type: cell-based, human; conditions: Homo sapiens, Monocyte, LPS-stimulated human monocytes, TNFα content; read-out: EC50 TNF
Method: IRAK4 Monocyte TNFα Cell Based Assay Procedure:
The cell suspension was then plated at a density of 5,000 cells/well onto black 384 well Greiner clear bottom plates. Plates were pre-spotted with test compounds and serially diluted in DMSO where 200 nL/well were delivered using the Echo 550 acoustic liquid dispenser (Labcyte®) for a final DMSO concentration of 0.5%. Plated cells were treated with compound for 1 hour at 37° C. Cells were then stimulated with 50 pg/ml of LPS (Sigma) excluding outside columns of plate used for unstimulated cell control wells. Cells were incubated for an additional 4 hours at 37° C. Cells were then spun out of the media and 5 μl of sample were taken and analyzed for total TNFα content using the TR-FRET Human TNFα detection system (CisBio). This system utilizes two labeled antibodies (cryptate and XL665) that bind to two different epitopes of the TNFα molecule and produce FRET signal proportional to the concentration of TNFα in the sample. Detection antibodies are mixed 50:50 and 5 μL were dispensed into each well. Plates were covered with clear seals and incubated at room temp overnight. […] Percent of control was calculated as follows: % Control=100×(RatioSample−Ratio0% stimulation)/(Ratio100% Stimulation−Ratio0% Stimulation) where unstimulated cells (0% stimulation) were the negative control and stimulated cells (100% stimulation) were used as the positive control.

Sequence of IRAK4 enzyme (Q9NWZ3 whole entry): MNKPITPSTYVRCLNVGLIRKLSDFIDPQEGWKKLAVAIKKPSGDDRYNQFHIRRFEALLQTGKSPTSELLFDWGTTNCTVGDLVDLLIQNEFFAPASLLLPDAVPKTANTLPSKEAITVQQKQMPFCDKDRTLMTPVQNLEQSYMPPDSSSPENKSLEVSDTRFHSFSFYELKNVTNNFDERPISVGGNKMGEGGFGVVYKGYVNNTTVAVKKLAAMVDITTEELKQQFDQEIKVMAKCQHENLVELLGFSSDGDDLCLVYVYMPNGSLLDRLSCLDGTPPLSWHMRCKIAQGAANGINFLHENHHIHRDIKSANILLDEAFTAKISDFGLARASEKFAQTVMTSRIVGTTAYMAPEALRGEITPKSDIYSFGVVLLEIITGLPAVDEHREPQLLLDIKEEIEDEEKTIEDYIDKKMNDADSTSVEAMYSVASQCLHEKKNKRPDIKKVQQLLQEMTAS

Compound	IC50 (IRAK4 enzyme) [nM]	EC50 (TNFα) [nM]
CC(C)(O)[C@H](F)CNC(=O)c1cnc(-c2ccc3cc(C#N)cnn23)cc1Nc1cccc(-c2cnc[nH]2)c1 [Example 219, (R)-4-((3-(1H-imidazol-5-yl)phenyl)amino)-6-(3-cyanopyrrolo[1,2-b]pyridazin-7-yl)-N-(2-fluoro-3-hydroxy-3-methylbutyl)nicotinamide]	1	209
CC(=O)NCc1cccc(Nc2cc(-c3ccc4cc(C#N)cnn34)ncc2C(=O)NC[C@@H](F)C(C)(C)O)c1 [Example 220, (R)-4-((3-(acetamidomethyl)phenyl)amino)-6-(3-cyanopyrrolo[1,2-b]pyridazin-7-yl)-N-(2-fluoro-3-hydroxy-3-methylbutyl)nicotinamide]	1	123
CC(C)(O)[C@H](F)CNC(=O)c1cnc(-c2ccc3cc(C#N)cnn23)cc1Nc1cccc(-c2ncc[nH]2)c1 [Example 221, (R)-4-((3-(1H-imidazol-2-yl)phenyl)amino)-6-(3-cyanopyrrolo[1,2-b]pyridazin-7-yl)-N-(2-fluoro-3-hydroxy-3-methylbutyl)nicotinamide]	< 1	98
CC(C)(O)[C@H](F)CNC(=O)c1cnc(-c2ccc3cc(C#N)cnn23)cc1Nc1cncc(C2CC2)c1 [Example 222, (R)-6-(3-cyanopyrrolo[1,2-b]pyridazin-7-yl)-4-((5-cyclopropylpyridin-3-yl)amino)-N-(2-fluoro-3-hydroxy-3-methylbutyl)nicotinamide]	1	151
CC(C)(O)[C@H](F)CNC(=O)c1cnc(-c2ccc3cc(C#N)cnn23)cc1Nc1cnn([C@H]2CCNC2)c1 [Example 223, 6-(3-cyanopyrrolo[1,2-b]pyridazin-7-yl)-N-((R)-2-fluoro-3-hydroxy-3-methylbutyl)-4-((1-((S)-pyrrolidin-3-yl)-1H-pyrazol-4-yl)amino) nicotinamide]	< 1	13
COC(=O)N1CC[C@H](n2cc(Nc3cc(-c4ccc5cc(C#N)cnn45)ncc3C(=O)NC[C@@H](F)C(C)(C)O)cn2)C1 [Example 224, (S)-methyl 3-(4-((2-(3-cyanopyrrolo[1,2-b]pyridazin-7-yl)-5-(((R)-2-fluoro-3-hydroxy-3-methylbutyl)carbamoyl)pyridin-4-yl)amino)-1H-pyrazol-1-yl) pyrrolidine-1-carboxylate]	1	75
COC(=O)NCc1ccc(Nc2cc(-c3ccc4cc(C#N)cnn34)ncc2C(=O)NC[C@@H](F)C(C)(C)O)cc1 [Example 225, (R)-methyl (4-((2-(3-cyano-pyrrolo[1,2-b]pyridazin-7-yl)-5-((2-fluoro-3-hydroxy-3-methylbutyl)carbamoyl)pyridin-4-yl)amino)benzyl)carbamate]	< 1	6
CC(C)(O)[C@H](F)CNC(=O)c1cnc(-c2ccc3cc(C#N)cnn23)cc1Nc1cncc(C(F)F)c1 [Example 226, (R)-6-(3-cyanopyrrolo[1,2-b]pyridazin-7-yl)-4-((5-(difluoromethyl)pyridin-3-yl)amino)-N-(2-fluoro-3-hydroxy-3-methylbutyl)nicotinamide]	< 1	75
CC(C)(O)[C@H](F)CNC(=O)c1cnc(-c2ccc3cc(C#N)cnn23)cc1Nc1ccc(C(F)F)nc1 [Example 227, (R)-6-(3-cyanopyrrolo[1,2-b]pyridazin-7-yl)-4-((6-(difluoromethyl)pyridin-3-yl)amino)-N-(2-fluoro-3-hydroxy-3-methylbutyl)nicotinamide]	< 1	31
CC(C)(O)[C@H](F)CNC(=O)c1cnc(-c2ccc3cc(C#N)cnn23)cc1Nc1ccc(-c2ncco2)cc1 [Example 228, (R)-6-(3-cyanopyrrolo[1,2-b]pyridazin-7-yl)-N-(2-fluoro-3-hydroxy-3-methylbutyl)-4-((4-(oxazol-2-yl)phenyl)amino) nicotinamide]	2	114
CC(C)(O)[C@H](F)CNC(=O)c1cnc(-c2ccc3cc(C#N)cnn23)cc1Nc1cccnc1F [Example 229, (R)-6-(3-cyanopyrrolo[1,2-b]pyridazin-7-yl)-N-(2-fluoro-3-hydroxy-3-methylbutyl)-4-((2-fluoropyridin-3-yl)amino)nicotinamide]	1	135
CC(C)(O)[C@H](F)CNC(=O)c1cnc(-c2ccc3cc(C#N)cnn23)cc1Nc1ccc(-c2ncc[nH]2)cc1 [Example 230, (R)-4-((4-(1H-imidazol-2-yl)phenyl)amino)-6-(3-cyanopyrrolo[1,2-b]pyridazin-7-yl)-N-(2-fluoro-3-hydroxy-3-methylbutyl)nicotinamide]	< 1	58
COC(=O)N1CC(n2cc(Nc3cc(-c4ccc5cc(C#N)cnn45)ncc3C(=O)NC[C@@H](F)C(C)(C)O)cn2)C1 [Example 231, (R)-methyl 3-(4-((2-(3-cyanopyrrolo[1,2-b]pyridazin-7-yl)-5-((2-fluoro-3-hydroxy-3-methylbutyl)carbamoyl)pyridin-4-yl)amino)-1H-pyrazol-1-yl)azetidine-1-carboxylate]	< 1	61
CC(C)(O)[C@H](F)CNC(=O)c1cnc(-c2ccc3cc(C#N)cnn23)cc1Nc1cnn(C2CNC2)c1 [Example 232, (R)-4-((1-(azetidin-3-yl)-1H-pyrazol-4-yl)amino)-6-(3-cyanopyrrolo[1,2-b]pyridazin-7-yl)-N-(2-fluoro-3-hydroxy-3-methylbutyl)nicotinamide]	1	425
Cc1cncc(Nc2cc(-c3ccc4cc(C#N)cnn34)ncc2C(=O)NC[C@@H](F)C(C)(C)O)c1 [Example 233, (R)-6-(3-cyanopyrrolo[1,2-b]pyridazin-7-yl)-N-(2-fluoro-3-hydroxy-3-methylbutyl)-4-((5-methylpyridin-3-yl)amino)nicotinamide]	1	170
CC(C)(O)[C@H](F)CNC(=O)c1cnc(-c2ccc3cc(C#N)cnn23)cc1Nc1ccc(-c2c[nH]cn2)cc1 [Example 234, (R)-4-((4-(1H-imidazol-4-yl)phenyl)amino)-6-(3-cyanopyrrolo[1,2-b]pyridazin-7-yl)-N-(2-fluoro-3-hydroxy-3-methylbutyl) nicotinamide]	< 1	33
COC(=O)N1CCC(n2cc(Nc3cc(-c4ccc5cc(C#N)cnn45)ncc3C(=O)NC[C@@H](F)C(C)(C)O)cn2)CC1 [Example 235, (R)-methyl 4-(4-((2-(3-cyanopyrrolo[1,2-b]pyridazin-7-yl)-5-((2-fluoro-3-hydroxy-3-methylbutyl)carbamoyl)pyridin-4-yl)amino)-1H-pyrazol-1-yl)piperidine-1-carboxylate]	2	166
CC(C)(O)[C@H](F)CNC(=O)c1cnc(-c2ccc3cc(C#N)cnn23)cc1Nc1cnn(C2CCNCC2)c1 [Example 236, (R)-6-(3-cyanopyrrolo[1,2-b]pyridazin-7-yl)-N-(2-fluoro-3-hydroxy-3-methylbutyl)-4-((1-(piperidin-4-yl)-1H-pyrazol-4-yl)amino) nicotinamide]	1	379
CC(C)(O)[C@H](F)CNC(=O)c1cnc(-c2ccc3cc(C#N)cnn23)cc1Nc1cnn([C@H]2CCOC2)c1 [Example 237, 6-(3-cyanopyrrolo[1,2-b]pyridazin-7-yl)-N-((R)-2-fluoro-3-hydroxy-3-methylbutyl)-4-((1-((S)-tetrahydrofuran-3-yl)-1H-pyrazol-4-yl)amino) nicotinamide]	1	23
CC(C)(O)[C@H](F)CNC(=O)c1cnc(-c2ccc3cc(C#N)cnn23)cc1N[C@@H]1CC2CN(C(N)=O)C[C@H]2C1 (stereo partly drawn) [Example 238, (3aR,5s,6aS)-5-((2-(3-cyanopyrrolo[1,2-b]pyridazin-7-yl)-5-(((R)-2-fluoro-3-hydroxy-3-methylbutyl)carbamoyl)pyridin-4-yl)amino)hexa-hydrocyclopenta[c]pyrrole-2(1H)-carboxamide]	< 1	225
CC(C)(O)[C@H](F)CNC(=O)c1cnc(-c2ccc3cc(C#N)cnn23)cc1Nc1cnn([C@@H]2CCOC2)c1 [Example 239, 6-(3-cyanopyrrolo[1,2-b]pyridazin-7-yl)-N-((R)-2-fluoro-3-hydroxy-3-methylbutyl)-4-((1-((R)-tetrahydrofuran-3-yl)-1H-pyrazol-4-yl)amino) nicotinamide]	< 1	24
CC(C)(O)[C@H](F)CNC(=O)c1cnc(-c2ccc3cc(C#N)cnn23)cc1N[C@@H]1CNCCC1(F)F [Example 240, 6-(3-cyanopyrrolo[1,2-b]pyridazin-7-yl)-4-(((R)-4,4-difluoropiperidin-3-yl)amino)-N-((R)-2-fluoro-3-hydroxy-3-methylbutyl) nicotinamide]	1	27
CC(=O)NCc1ccc(Nc2cc(-c3ccc4cc(C#N)cnn34)ncc2C(=O)NC[C@@H](F)C(C)(C)O)cc1 [Example 241, (R)-4-((4-(acetamidomethyl)phenyl)amino)-6-(3-cyanopyrrolo[1,2-b]pyridazin-7-yl)-N-(2-fluoro-3-hydroxy-3-methylbutyl)nicotinamide]	< 1	16
COC(=O)N1CCC(Nc2cc(-c3ccc4cc(C#N)cnn34)ncc2C(=O)NC[C@@H](F)C(C)(C)O)CC1 [Example 242, (R)-methyl 4-((2-(3-cyano-pyrrolo[1,2-b]pyridazin-7-yl)-5-((2-fluoro-3-hydroxy-3-methylbutyl)carbamoyl)pyridin-4-yl)amino)piperidine-1-carboxylate]	2	191
CN(C)C(=O)N1CCC(Nc2cc(-c3ccc4cc(C#N)cnn34)ncc2C(=O)NC[C@@H](F)C(C)(C)O)CC1 [Example 243, (R)-6-(3-cyanopyrrolo[1,2-b]pyridazin-7-yl)-4-((1-(dimethylcarbamoyl)piperidin-4-yl)amino)-N-(2-fluoro-3-hydroxy-3-methylbutyl)nicotinamide]	2	218
